# Test results published in article PMC4594923, “Food Polyphenols Fail to Cause a Biologically Relevant Reduction of COX-2 Activity” (PLoS ONE, 2015).
# Entries after “also recorded” stand apart in the source; their conditions may differ. Marks after values point to notes of the source that are not given here.
# Legend:
# IL–6 = assay: kidney IL–6 mRNA (qPCR) in LPS induced sepsis in mice; type: in vivo, C57BL/6N mice; conditions: compound i. p. 100 mg/kg bw 2 h before LPS, 24 h after LPS
# Method: (§1) Samples were stored at -80°C till further analysis. […] Plasma was generated by centrifugation at 4000 g at 4°C and stored at -80°C till further analysis.
# (§2) Tissue sections were stored in RNA-later immediately after organ retrieval. Total RNA was extracted using the RNeasy mini kit system (Qiagen, Hilden, Germany) and transcribed using Superscript II Reverse transcriptase (Invitrogen). Quantitative (q) PCR was performed on […] (Roche Diagnostics, Penzberg, Germany) using FastStart Sybr-Green chemistry. Gene-specific primers for IL–6 (Quantitec QT00098875, Qiagen) and MCP–1 (Quantitec QT00167832, Qiagen) were used for the gene of interest and HPRT served as house keeping gene for normalization (Quantitec QT00166768, Qigaen). Quantification was carried out using qgene software.
# [1] = clinical chemistry in plasma (urea, creatinine, AST, ALT, LDH) in LPS induced sepsis in mice; type: in vivo, C57BL/6N mice; conditions: compound i. p. 100 mg/kg bw 2 h before LPS, 24 h after LPS
# [2] = system: arachidonic acid (AA) cascade; assay: kidney tissue oxylipin/PG levels in LPS induced sepsis in mice;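 further: male C57BL/6N mice challenged with LPS, kidney taken 24 h later, oxylipins quantified by LC-MS after solid-phase extraction of tissue homogenate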
# Description: Twelve week old male C57BL/6N mice (Charles River, Sulzfeld, Germany) were used for all experiments. C57BL/6 male mice (H2^b, 11–13 weeks of age) were obtained from Charles River (Sulzfeld, Germany). Animals were cared for in accordance with the institution’s guidelines for experimental animals and with the guidelines of the American Physiological Society. […] Mice were monitored closely and if they appeared compromised (i.e. inactivity, no intake of food or water) after compound or LPS injection the experiment was terminated.
# Oxylipin levels were analyzed in plasma and tissues by LC-MS following SPE extraction of 200 μl plasma or tissue homogenate (50 mg) on Chromabond C18 ec cartridges (Machery-Nagel, Düren, Germany) [19].
# GraphPad Prism 5.0 (GraphPad Software, San Diego, USA) was used for data analysis, the fitting of dose response curves and calculation of the IC50 values. Statistical differences were determined by Dunnetts test (LPS vs. other groups).
# [3] = system: arachidonic acid (AA) cascade; assay: plasma oxylipin/PG levels in LPS induced sepsis in mice;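 further: male C57BL/6N mice given LPS, plasma oxylipins quantified by LC-MS after solid-phase extraction, pretreatment or vehicle given intraperitoneally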; type: in vivo, C57BL/6N mice; conditions: mice, 24 h after LPS, vs. LPS group
# MCP–1 = assay: kidney MCP–1 mRNA (qPCR) in LPS induced sepsis in mice; type: in vivo, C57BL/6N mice; conditions: compound i. p. 100 mg/kg bw 2 h before LPS, 24 h after LPS, vs. LPS group
# Method: as §1, §2
# [4] = kidney tissue 24 h after LPS treatment, LPS +, mean
# [5] = kidney tissue 24 h after LPS treatment, LPS +, mean, < = below LOQ
# [6] = mice, compound i. p. 100 mg/kg bw 2 h before LPS, 24 h after LPS, vs. LPS group
# [7] = compound i. p. 100 mg/kg bw 2 h before LPS (10 mg/kg bw i. p.)
structure (smiles),measurement,setting,value
"Cc1ccc(-c2cc(C(F)(F)F)nn2-c2ccc(S(N)(=O)=O)cc2)cc1 [celecoxib, reference compound]",further increase of kidney IL–6 mRNA expression in comparison to LPS group,IL–6,9 fold
same,plasma ALT activity,[1],elevated; also recorded: moderate elevation
same,plasma AST activity,[1],elevated; also recorded: moderate elevation
same,plasma LDH activity,[1],moderate elevation
same,plasma creatinine level,[1],elevation
same,plasma urea level,[1],elevation
same,"1a,1b-dihomo-PGF2α",[2]; [4],0.54^* nM
same,"4,5-DiHDPE",[2]; [4],22^‡ nM
same,4-HDHA,[2]; [4],21 nM
same,5(6)-EpETrE,[2]; [4],130^† nM
same,"5,6-DiHETrE",[2]; [4],2.1^‡ nM
same,5-HEPE,[2]; [4],1.5^‡ nM
same,5-HETE,[2]; [4],16^‡ nM
same,5-oxo-ETE,[2]; [4],31 nM
same,6-keto-PGF1α,[2]; [4],36 nM
same,"7,8-DiHDPE",[2]; [4],1.9 nM
same,7-HDHA,[2]; [4],4.8^‡ nM
same,8(9)-EpETrE,[2]; [4],30^† nM
same,"8,9-DiHETrE",[2]; [4],1.7 nM
same,8-HDHA,[2]; [4],24^‡ nM
same,8-HETE,[2]; [4],4.6 nM
same,8-iPF2a,[2]; [4],1.2 nM
same,9(10)-EpOME,[2]; [4],160^* nM
same,9(10)-Epoxystearic acid,[2]; [4],81^† nM
same,"9,10,13-TriHOME",[2]; [4],4.1 nM
same,"9,10-DiHODE",[2]; [4],1.3 nM
same,"9,10-DiHOME",[2]; [4],17^* nM
same,"9,10-Dihydroxystearic acid",[2]; [4],58 nM
same,"9,12,13-TriHOME",[2]; [4],24 nM
same,9-HETE,[2]; [4],4.0^* nM
same,9-HODE,[2]; [4],160 nM
same,9-HOTrE,[2]; [4],4.3 nM
same,9-oxo-ODE,[2]; [4],51 nM
same,10(11)-EpDPE,[2]; [4],70^‡ nM
same,"10,11-DiHDPE",[2]; [4],2.0 nM
same,10-HDHA,[2]; [4],4.3 nM
same,11(12)-EpETE,[2]; [4],3.5^* nM
same,11(12)-EpETrE,[2]; [4],77^† nM
same,"11,12-DiHETrE",[2]; [4],1.7^* nM
same,11-HDHA,[2]; [4],6.6^* nM
same,11-HETE,[2]; [4],10 nM
same,12(13)-EpOME,[2]; [4],120^† nM
same,"12,13-DiHOME",[2]; [4],28^† nM
same,12-HEPE,[2]; [4],2.9 nM
same,12-HETE,[2]; [4],29 nM
same,13(14)-EpDPE,[2]; [4],55^† nM
same,"13,14-DiHDPE",[2]; [4],1.5^‡ nM
same,"13,14-dihydro-15-keto-PGF2α",[2]; [4],0.72^† nM
same,13-HDHA,[2]; [4],6.0 nM
same,13-HODE,[2]; [4],140 nM
same,13-HOTrE,[2]; [4],5.2 nM
same,13-oxo-ODE,[2]; [4],9.2 nM
same,14(15)-EpETE,[2]; [4],4.2^* nM
same,14(15)-EpETrE,[2]; [4],57^† nM
same,"14,15-DiHETE",[2]; [4],0.34^‡ nM
same,"14,15-DiHETrE",[2]; [4],3.3^‡ nM
same,14-HDHA,[2]; [4],17 nM
same,15(16)-EpODE,[2]; [4],55 nM
same,15(S)-HETrE,[2]; [4],4.0 nM
same,"15,16-DiHODE",[2]; [4],21 nM
same,15-HETE,[2]; [4],19 nM
same,15-oxo-ETE,[2]; [4],8.4 nM
same,16(17)-EpDPE,[2]; [4],52^‡ nM
same,"16,17-DiHDPE",[2]; [4],2.8^‡ nM
same,16-HDHA,[2]; [4],6.1 nM
same,"17,18-DiHETE",[2]; [4],2.1^‡ nM
same,18-HEPE,[2]; [4],1.3 nM
same,19(20)-EpDPE,[2]; [4],78^* nM
same,"19,20-DiHDPE",[2]; [4],29^‡ nM
same,20-HDHA,[2]; [4],18 nM
same,20-HEPE,[2]; [4],5.3 nM
same,EKODE,[2]; [4],41 nM
same,PGD2,[2]; [4],7.4 nM
same,PGE1,[2]; [4],2.5 nM
same,PGE2,[2]; [4],45 nM
same,PGF1α,[2]; [4],1.4^† nM
same,PGF2α,[2]; [4],15 nM
same,TXB2,[2]; [4],1.3 nM
same,5-iPF2α,[2]; [5],< 1.0 nM
same,8(9)-EpETE,[2]; [5],2.4^* nM
same,"12,13-DiHODE",[2]; [5],< 2.0 nM
same,"13,14-dihydro-15-keto-PGE1",[2]; [5],< 0.1 nM
same,20-HETE,[2]; [5],< 2.7 nM
same,PGD1,[2]; [5],< 0.50 nM
same,PGF2α,"[2]; kidney tissue 24 h after LPS treatment, LPS +, mean, second listing of PGF2α (r9)",15 nM
same,"kidney 13,14-dihydro-15-keto-PGE1 level",[2]; [6],<LOQ
same,"kidney 13,14-dihydro-15-keto-PGE2α level",[2]; [6],lowered
same,plasma 6-keto-PGF1α level,[3]; [7],below the limit of quantification; also recorded: decreased
same,"plasma 13,14-dihydro-15-keto-PGE1 level",[3]; [7],below the limit of quantification; also recorded: decreased
same,"plasma 13,14-dihydro-15-keto-PGF2α level",[3]; [7],massively decreased
same,plasma PG levels (LPS induced PG increase),[3]; [7],effectively attenuated; also recorded: reduced
same,plasma PGE2 level,[3]; [7],massively decreased
same,plasma PGF2α level,[3]; [7],below the limit of quantification
same,plasma epoxy- and dihydroxy-fatty acid (FA) metabolites of the CYP pathway,[3]; compound i. p. 100 mg/kg bw 2 h before LPS,decreased
same,kidney MCP–1 mRNA levels,MCP–1,did not affect
